pIC50: −log10 of the molar value.
Columns and labels:
[1] = tested on: Nrf2; assay: Nrf2 antagonism assay: ARE luciferase reporter in KYSE-70 cells; type: cell-based; details: Homo sapiens, KYSE-70, KYSE-70 cells, positive Imax corresponds to Nrf2 antagonism, read-out: KYSE70 Cellular ARE Luciferase Imax (%)
How it was run: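 Dose-response curves give IC50 and Imax, with positive Imax read as Nrf2 antagonism, i.e. reduced luciferase signal. Reporter cells are Nrf2-high KYSE-70 (Nrf2 W24C mutant) bearing ARE-controlled luciferase. Antagonists are proposed to act at KEAP1 C151, speeding Nrf2 degradation.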

[2] = target: T1, KEAP1 C151 (Homo sapiens, UniProt Q14145); assay: Nrf2 TMT measurement: in vitro TE50 for KEAP1 C151 (IA-DTB competition, targeted TMT mass spectrometry) in MDA-MB-468 cell lysate; type: binding; details: in vitro target engagement of KEAP1 C151, targeted TMT, read-out: KEAP1_C151 TE50
T1 construct: treating 500 μg of cell lysate generated from MDA-MB-468 breast cancer cells with DMSO or compound; endogenous in cells; host or cells: MDA-MB-468 breast cancer cell lysate
T1 sequence (Q14145 whole entry): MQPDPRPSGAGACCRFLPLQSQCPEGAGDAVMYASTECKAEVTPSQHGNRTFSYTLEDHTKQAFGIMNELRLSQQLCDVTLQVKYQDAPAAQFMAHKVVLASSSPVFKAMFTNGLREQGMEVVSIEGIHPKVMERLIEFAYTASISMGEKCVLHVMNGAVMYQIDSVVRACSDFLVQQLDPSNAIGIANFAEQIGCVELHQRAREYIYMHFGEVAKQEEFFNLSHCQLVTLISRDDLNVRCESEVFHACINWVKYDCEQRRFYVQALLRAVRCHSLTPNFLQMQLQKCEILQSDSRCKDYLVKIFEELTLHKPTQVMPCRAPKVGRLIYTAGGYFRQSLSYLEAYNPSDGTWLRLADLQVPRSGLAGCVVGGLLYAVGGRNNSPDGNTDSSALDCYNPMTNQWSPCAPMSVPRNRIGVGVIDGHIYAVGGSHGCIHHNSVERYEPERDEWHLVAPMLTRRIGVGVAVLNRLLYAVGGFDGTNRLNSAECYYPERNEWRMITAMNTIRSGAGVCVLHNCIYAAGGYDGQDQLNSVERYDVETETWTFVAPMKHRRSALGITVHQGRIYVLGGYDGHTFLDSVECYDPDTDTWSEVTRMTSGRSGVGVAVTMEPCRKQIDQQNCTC
How it was run: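 Occupancy of KEAP1 C151 measured as loss of IA-DTB labeling (200 μM, 1 h, room temperature) after 1 h compound pre-treatment of MDA-MB-468 cell lysate.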

Row | Compound | pIC50 [2] | Emax [1]
1 | C=CC(=O)N1CCOCC1c1cc(Cl)cc(-c2cccc(C(N)=O)c2)c1 (single isomer, unassigned) [Compound 71, 3′-(4-acryloylmorpholin-3-yl)-5′-chloro-[1,1′-biphenyl]-3-carboxamide] | 7.52 | 78%
2 | C=CC(=O)N1[C@H](C)COC[C@H]1c1cc(Cl)cc(-c2ccnc(N3CCCC3=O)c2)c1 (single isomer, unassigned) [Compound 18] | 8.00 | 69%
3 | C=CC(=O)N1CCOCC1c1cc(Cl)cc(C2CCOCC2)c1 (single isomer, unassigned) [Compound 5, 1-(3-(3-chloro-5-(tetrahydro-2H-pyran-4-yl)phenyl)morpholino)prop-2-en-1-one] | 6.89 | 70%
4 | C=CC(=O)N1CCOC[C@H]1c1cc(Cl)cc(-c2ccnc(OC)c2)c1 (single isomer, unassigned) [Compound 91] | 7.96 | 82%
5 | C=CC(=O)N1CCOCC1c1cc(Cl)cc(-c2cnn(C)c(=O)c2)c1 (single isomer, unassigned) [Compound 53, 5-(3-(4-acryloylmorpholin-3-y1)-5-chlorophenyl)-2-methylpyridazin-3(2H)-one] | 7.18 | 55%
6 | C=CC(=O)N1CCOCC1c1cc(Cl)cc(-c2ccnc(N)n2)c1 (single isomer, unassigned) [Compound 40, 1-(3-(3-(2-aminopyrimidin-4-y1)-5-chlorophenyl)morpholino)prop-2-en-1-one] | 7.40 | 93%
7 | C=CC(=O)N1CCOCC1c1cc(Cl)cc(-c2ccnc(C(N)=O)n2)c1 (single isomer, unassigned) [Compound 89, 4-(3-(4-acryloylmorpholin-3-yl)-5-chlorophenyl)pyrimidine-2-carboxamide] | 7.44 | 73%
8 | C=CC(=O)N1CCOCC1c1cc(Cl)cc(-c2cnc3cncn3c2)c1 (single isomer, unassigned) [Compound 68, 1-(3-(3-chloro-5-(imidazo[1,5-a]pyrimidin-3-yl)phenyl)morpholino)prop-2-en-1-one] | 7.05 | 72%
9 | C=CC(=O)N1CC2(CC2)OCC1c1cc(Cl)cc(-c2ccnc(C(N)=O)c2)c1 (single isomer, unassigned) [Compound 122, 4-(3-(7-acryloyl-4-oxa-7-azaspiro[2.5]octan-6-yl)-5-chlorophenyl)picolinamide] | 7.96 | 88%
10 | C=CC(=O)N1CCOC[C@H]1c1cc(Cl)cc(-c2nc(C)cc(N)n2)c1 (single isomer, unassigned) [Compound 95] | 7.60 | 94%
11 | C=CC(=O)N1CC(C)(C)OCC1c1cc(Cl)nc(-c2ccnc(C)n2)c1 (single isomer, unassigned) [Compound 120, 1-(5-(2-chloro-6-(2-methylpyrimidin-4-yl)pyridin-4-yl)-2,2-dimethylmorpholino)prop-2-en-1-one] | 6.96 | 77%
12 | C=CC(=O)N1CCOC[C@H]1c1cc(Cl)cc(-c2ccnc3[nH]ccc23)c1 (single isomer, unassigned) [Compound 97] | 7.64 | 86%
13 | C=CC(=O)N1CC2(CC2)OCC1c1cc(Cl)cc(-c2ccnc(N)n2)c1 (single isomer, unassigned) [Compound 84, 1-(6-(3-(2-aminopyrimidin-4-y1)-5-chlorophenyl)-4-oxa-7-azaspiro[2.5]octan-7-yl)prop-2-en-1-one] | 7.33 | 93%
14 | C=CC(=O)N1CCN(C(C)=O)C[C@H]1c1cc(Cl)cc(-c2ncnc(N)n2)c1 (single isomer, unassigned) [Compound 74] | 7.66 | 89%
15 | C=CC(=O)N1CCOCC1c1cc(Cl)cc(-c2ccc3nccnc3c2)c1 (single isomer, unassigned) [Compound 34, 1-(3-(3-chloro-5-(quinoxalin-6-yl)phenyl)morpholino)prop-2-en-1-one] | 7.74 | 83%
16 | C=CC(=O)N1CCOCC1c1cc(Cl)nc(-c2ccn3ccnc3c2)c1 (single isomer, unassigned) [Compound 64, 1-(3-(2-chloro-6-(imidazo[1,2-a]pyridin-7-yl)pyridin-4-yl)morpholino)prop-2-en-1-one] | 9.00 | 75%
17 | C=CC(=O)N1CCOCC1c1cc(Cl)cc(-c2cnc3cccnc3c2)c1 (single isomer, unassigned) [Compound 37, 1-(3-(3-chloro-5-(1,5-naphthyridin-3-yl)phenyl)morpholino)prop-2-en-1-one] | 7.66 | 85%
18 | C=CC(=O)N1CCOC[C@H]1c1cc(Cl)cc(-c2cc(C)ccn2)c1 (single isomer, unassigned) [Compound 104] | 7.35 | 91%
19 | C=CC(=O)N1CCOC[C@H]1c1cc(Cl)cc(-c2ncc(C)cn2)c1 (single isomer, unassigned) [Compound 101] | 7.62 | 87%
20 | C=CC(=O)N1CCOC[C@H]1c1cc(Cl)cc(-c2ncc(F)cn2)c1 (single isomer, unassigned) [Compound 19] | 7.48 | 84%
21 | C=CC(=O)N1CCOCC1c1cc(Cl)cc(-c2ccncn2)c1 (single isomer, unassigned) [Compound 42, 1-(3-(3-chloro-5-(pyrimidin-4-yl)phenyl)morpholino)prop-2-en-1-one] | 7.43 | 79%

More lines, main results first:

Row | pIC50 [2] | Compound | Emax [1]
22 | 7.35 | C=CC(=O)N1CCOC[C@H]1c1cc(Cl)cc(-c2cnc(F)c(N)n2)c1 (single isomer, unassigned) [Compound 279] | 92%
23 | > 8.19 | C=CC(=O)N1CCOC[C@H]1c1cc(Cl)cc(-c2cnc(N)c(F)n2)c1 [Compound 289, (R)-1-(3-(3-(5-amino-6-fluoropyrazin-2-yl)-5-chlorophenyl)morpholino)prop-2-en-1-one] | 95%
24 | 6.46 | C=CC(=O)N1CC2(CCCC2)OCC1(C)c1cc(Cl)cc(-c2nccc(N)n2)c1 (single isomer, unassigned) [Compound 171, 1-(8-(3-(4-aminopyrimidin-2-yl)-5-chlorophenyl)-8-methyl-6-oxa-9-azaspiro[4.5]decan-9-yl)prop-2-en-1-one] | 72%
25 | > 8.19 | C=CC(=O)N1[C@H](c2cc(Cl)cc(-c3ncc(N)cn3)c2)COC[C@H]1C(F)F (single isomer, unassigned) [Compound 291] | 93%
26 | 6.74 | C=CC(=O)N1CCOC[C@H]1c1cc(Cl)cc(-c2ncncn2)c1 (single isomer, unassigned) [Compound 147] | 74%
27 | 7.66 | C=CC(=O)N1C[C@@H](C)N(C(=O)C2CC2)C[C@@H]1c1cc(Cl)cc(-c2ncc(N)cn2)c1 (single isomer, unassigned) [Compound 243] | 88%
28 | 7.96 | C=CC(=O)N1[C@H](C)COC[C@H]1c1cc(Cl)nc(-c2ccnc(C(N)=O)c2)c1 (single isomer, unassigned) [Compound 145] | 90%
29 | 6.21 | C=CC(=O)N1CC2(CCCC2)OCC1(C)c1cc(Cl)cc(-c2ccnc(N)n2)c1 (single isomer, unassigned) [Compound 163, 1-(8-(3-(2-aminopyrimidin-4-yl)-5-chlorophenyl)-8-methyl-6-oxa-9-azaspiro[4.5]decan-9-yl)prop-2-en-1-one] | 72%
30 | 7.74 | C=CC(=O)N1CCN(C(C)=O)C[C@H]1c1cc(Cl)cc(-c2ncc(N)cn2)c1 (single isomer, unassigned) [Compound 188] | 86%
31 | 7.09 | C=CC(=O)N1CCS(=O)(=O)CC1c1cc(Cl)cc(-c2nccc(N)n2)c1 (single isomer, unassigned) [Compound 209, 1-(3-(3-(4-aminopyrimidin-2-yl)-5-chlorophenyl)-1,1-dioxidothiomorpholino)prop-2-en-1-one] | 93%
32 | > 8.19 | C=CC(=O)N1CCOC[C@H]1c1cc(Cl)cc(-c2cc(N)cnn2)c1 (single isomer, unassigned) [Compound 132] | 78%
33 | 5.86 | C=C(Cl)C(=O)N1CCOC[C@H]1c1cc(Cl)cc(-c2ncnc(N)n2)c1 (single isomer, unassigned) [Compound 294] | 91%
34 | 7.82 | C=CC(=O)N1CC(C)(C)OC[C@H]1c1cc(Cl)cc(-c2cc(N)ncn2)c1 (single isomer, unassigned) [Compound 149] | 95%
35 | 5.17 | C=CC(=O)N1CC2(CC2)OCC12COc1c(-c3ccnc(N)n3)cc(Cl)cc12 (single isomer, unassigned) [Compound 192] | 64%
36 | 6.96 | C=CC(=O)N1CC(C)(C)OC[C@H]1c1cc(Cl)cc(-c2ncc(N)c(N)n2)c1 (single isomer, unassigned) [Compound 287] | 96%
37 | 6.85 | C=CC(=O)N1CCOC[C@H]1c1cc(Cl)cc(C2CNC(=O)N(C)C2)c1 (single isomer, unassigned) [Compound 216] | 86%
38 | 6.28 | C=CC(=O)N1CC2(CCCC2)OCC1(C)c1cc(Cl)cc(-c2ncc(F)cn2)c1 (single isomer, unassigned) [Compound 166, 1-(8-(3-chloro-5-(5-fluoropyrimidin-2-yl)phenyl)-8-methyl-6-oxa-9-azaspiro[4.5]decan-9-yl)prop-2-en-1-one] | 50%

— patent publication US20260207621A1 (Vividion Therapeutics, Inc., priority 2022, published 2026)
